These results are taken from ChEMBL document CHEMBL4138247, “Synthesis of new triterpenic monomers and dimers as potential antiproliferative agents and their molecular docking studies” (Eur J Med Chem, 2018).

What all share (format): functional, cell-based
For one assay, the system named is A2780. Kind of assay: Antiproliferative activity against human A2780 cells after 96 hrs by SRB assay. Particulars: A2780, 96 h. A general note: In SRB staining, fixed cells bind dye roughly in proportion to their protein.
A further assay relates to FaDu. Kind of assay: Antiproliferative activity against human FADU cells after 96 hrs by SRB assay.
A further assay deals with HT-29. Put plainly: Antiproliferative activity against human HT-29 cells after 96 hrs by SRB assay. Particulars: HT-29, 96 h.
The test system of the next assay is A-375. Kind of assay: Antiproliferative activity against human A375 cells after 96 hrs by SRB assay. As to conditions: A-375, 96 h.

Consider `C/C(=C\CC/C(C)=C/CC[C@@H]1[C@@]2(C)CCC(=O)C(C)(C)[C@@H]2CC[C@@]1(C)O)CC/C=C(\C)C(=O)OCCOC(=O)/C(C)=C/CC/C(C)=C/CC/C(C)=C/CC[C@@H]1[C@@]2(C)CC[C@@H](O)C(C)(C)[C@@H]2CC[C@@]1(C)O`, for which the IC50 (usually the point on the concentration scale where inhibition reaches its midpoint) with A2780 was 20.7 µM; in the assay with FaDu, greater than 30 µM; in the assay on HT-29 it was 10 µM; in the assay on A-375, 15.5 µM.
Take `C/C(=C\CC/C(C)=C/CC[C@@H]1[C@@]2(C)CCC(=O)C(C)(C)[C@@H]2CC[C@@]1(C)O)CC/C=C(\C)C(=O)OCCCCBr`: the half-maximal inhibitory concentration (IC50) is 21.6 µM in the assay with A2780, greater than 30 µM with FaDu, 14.6 µM in the assay with HT-29 and 14.5 µM in the assay with A-375.
The like results for `C/C(=C\CC/C(C)=C/CC[C@@H]1[C@@]2(C)CCC(=O)C(C)(C)[C@@H]2CC[C@@]1(C)O)CC/C=C(\C)C(=O)OCCCOC(=O)/C(C)=C/CC/C(C)=C/CC/C(C)=C/CC[C@@H]1[C@@]2(C)CCC(=O)C(C)(C)[C@@H]2CC[C@@]1(C)O` were, in that order, 16 µM, greater than 30 µM, 5.4 µM and 10.4 µM.
The like results for `C/C(=C\CC/C(C)=C/CC[C@@H]1[C@@]2(C)CCC(=O)C(C)(C)[C@@H]2CC[C@@]1(C)O)CC/C=C(\C)C(=O)OCCCOC(=O)[C@@]1(C)[C@H](O)CC[C@@]2(C)[C@H]1CC[C@]1(C)[C@@H]2C(=O)C=C2[C@@H]3[C@@H](C)[C@H](C)CC[C@]3(C)CC[C@]21C` were, in that order, greater than 30 µM, greater than 30 µM, greater than 30 µM and greater than 30 µM.
For `C/C(=C\CC/C(C)=C/CC[C@@H]1[C@@]2(C)CCC(=O)C(C)(C)[C@@H]2CC[C@@]1(C)O)CC/C=C(\C)C(=O)OCCCCOC(=O)/C(C)=C/CC/C(C)=C/CC/C(C)=C/CC[C@@H]1[C@@]2(C)CCC(=O)C(C)(C)[C@@H]2CC[C@@]1(C)O`, in that order: 24.2 µM, greater than 30 µM, 8.8 µM and 12.4 µM.
Consider `C=C(C)[C@@H]1CC[C@]2(C)CC[C@]3(C)[C@H](CC[C@@H]4[C@@]5(C)CC[C@@H](O)[C@](C)(C(=O)OCCBr)[C@@H]5CC[C@]43C)[C@@H]12`, for which the IC50 was 29 µM in the assay with A2780, 26.4 µM with FaDu, 23 µM in the assay with HT-29 and 17.4 µM in the assay with A-375.
For `C/C(=C\CC/C(C)=C/CC[C@@H]1[C@@]2(C)CCC(=O)C(C)(C)[C@@H]2CC[C@@]1(C)O)CC/C=C(\C)C(=O)OCCOC(=O)[C@@]1(C)[C@H](O)CC[C@@]2(C)[C@H]1CC[C@]1(C)[C@@H]2C(=O)C=C2[C@@H]3[C@@H](C)[C@H](C)CC[C@]3(C)CC[C@]21C`, the IC50 in the assay on A2780, in the assay on FaDu, in the assay on HT-29 and in the assay on A-375 was greater than 30 µM each time.
`C=C(C)[C@@H]1CC[C@]2(C)CC[C@]3(C)[C@H](CC[C@@H]4[C@@]5(C)CC[C@@H](O)[C@](C)(C(=O)OCCCBr)[C@@H]5CC[C@]43C)[C@@H]12`: the 50% inhibitory concentration (IC50) was found to be 26.9 µM in the assay with A2780, 27.1 µM in the assay on FaDu, 24.5 µM in the assay with HT-29 and 16.7 µM in the assay with A-375.
The like results for `C/C(=C\CC/C(C)=C/CC[C@@H]1[C@@]2(C)CCC(=O)C(C)(C)[C@@H]2CC[C@@]1(C)O)CC/C=C(\C)C(=O)OCCBr` were, in that order, greater than 30 µM, greater than 30 µM, greater than 30 µM and greater than 30 µM.
For the compound `C/C(=C\CC/C(C)=C/CC[C@@H]1[C@@]2(C)CCC(=O)C(C)(C)[C@@H]2CC[C@@]1(C)O)CC/C=C(\C)C(=O)OCCCCOC(=O)/C(C)=C/CC/C(C)=C/CC/C(C)=C/CC[C@@H]1[C@@]2(C)CC[C@H](O)C(C)(C)[C@@H]2CC[C@@]1(C)O`, the IC50 was determined as 16.1 µM with A2780, 28.2 µM with FaDu, 8.2 µM with HT-29 and 10.6 µM in the assay with A-375.
For the compound `C=C(C)[C@@H]1CC[C@]2(C)CC[C@]3(C)[C@H](CC[C@@H]4[C@@]5(C)CC[C@@H](O)[C@](C)(C(=O)OCCCCBr)[C@@H]5CC[C@]43C)[C@@H]12`, the IC50 in the assay on A2780 is greater than 30 µM; in the assay with FaDu, greater than 30 µM; with HT-29 it was greater than 30 µM; in the assay with A-375 it was 18 µM.
Consider `C/C(=C\CC/C(C)=C/CC[C@@H]1[C@@]2(C)CCC(=O)C(C)(C)[C@@H]2CC[C@@]1(C)O)CC/C=C(\C)C(=O)OCCCCOC(=O)[C@@]1(C)[C@H](O)CC[C@@]2(C)[C@H]1CC[C@]1(C)[C@@H]2C(=O)C=C2[C@@H]3[C@@H](C)[C@H](C)CC[C@]3(C)CC[C@]21C`, for which the 50% inhibitory concentration (IC50) in the assay on A2780, in the assay with FaDu, in the assay with HT-29 and with A-375 was greater than 30 µM in each case.
`C/C(=C\CC/C(C)=C/CC[C@@H]1[C@@]2(C)CCC(=O)C(C)(C)[C@@H]2CC[C@@]1(C)O)CC/C=C(\C)C(=O)OCCCBr`: the IC50 was 18.1 µM with A2780, greater than 30 µM with FaDu, 8.1 µM in the assay with HT-29 and 11.8 µM in the assay on A-375.
On to `C/C(=C\CC/C(C)=C/CC[C@@H]1[C@@]2(C)CCC(=O)C(C)(C)[C@@H]2CC[C@@]1(C)O)CC/C=C(\C)C(=O)OCCCOC(=O)/C(C)=C/CC/C(C)=C/CC/C(C)=C/CC[C@@H]1[C@@]2(C)CC[C@@H](O)C(C)(C)[C@@H]2CC[C@@]1(C)O`, for which the concentration for half-maximal inhibition (IC50) in the assay on A2780 amounted to 14.8 µM; in the assay with FaDu, 25.1 µM; in the assay on HT-29 it was 6.8 µM; with A-375 it was 11.1 µM.
Turning to `C/C(=C\CC/C(C)=C/CC[C@@H]1[C@@]2(C)CCC(=O)C(C)(C)[C@@H]2CC[C@@]1(C)O)CC/C=C(\C)C(=O)OCCOC(=O)/C(C)=C/CC/C(C)=C/CC/C(C)=C/CC[C@@H]1[C@@]2(C)CCC(=O)C(C)(C)[C@@H]2CC[C@@]1(C)O`, the IC50 with A2780 was greater than 30 µM; with FaDu, greater than 30 µM; in the assay with HT-29, 14 µM; in the assay on A-375, 24.5 µM.
For `C=C(C)[C@@H]1CC[C@]2(C(=O)OCCCCOC(=O)/C(C)=C/CC/C(C)=C/CC/C(C)=C/CC[C@@H]3[C@@]4(C)CCC(=O)C(C)(C)[C@@H]4CC[C@@]3(C)O)CC[C@]3(C)[C@H](CC[C@@H]4[C@@]5(C)CC[C@H](O)C(C)(C)[C@@H]5CC[C@]43C)[C@@H]12`, the half-maximal inhibitory concentration (IC50) in the assay on A2780, with FaDu, in the assay on HT-29 and with A-375 was greater than 30 µM throughout.
